In article PMC11393453, “Phosphorylation of tau at a single residue inhibits binding to the E3 ubiquitin ligase, CHIP” (Nature Communications, 2024):

Legend:
[1] = test system: endogenous CHIP; test: Co-immunoprecipitation of endogenous CHIP with GFP-tau proteoforms; assay type: cell-based; conditions: Fig 3E
Experimental: (§1) Fig. 3 TauC3 Ser416 phosphorylation regulates CHIP-dependent tau homeostasis. A In vitro ubiquitination of tau proteoforms by CHIP. Samples were collected at the denoted timepoints, quenched in SDS-PAGE loading buffer, and analyzed by western blot. B Quantification of unmodified tau remaining following in vitro ubiquitination of varying tau proteoforms by CHIP. Unmodified tau remaining was analyzed by densitometry, normalized to 0-min time point, and curves were fit using one-phase exponential decay (n = 3 technical replicates). C Cartoon schematic depicting promoter architecture and varying C-terminal sequences for HEK293 FlpIn T-Rex cells expressing doxycycline inducible GFP-tau proteoforms. D Representative fluorescence micrographs for GFP-tau cells. Images show tau species associated with microtubules (green, false color), while nuclei are stained with Hoechst 33342 (blue, false color). Scale bar = 30 µm. Images are representative of three separate acquisitions. E Co-immunoprecipitation assay following IP of varying tau species from cells. Whole cell lysate (input) was used for loading controls, and co-immunoprecipitated CHIP was analyzed by western blot. Experiment was repeated in duplicate. F Representative western blot showing differing abundance of various tau proteoforms in HEK293 FlpIn T-Rex cells. Experiment was repeated in duplicate. G Quantification of tau protein abundance taken from three independent biological experiments. Tau:tubulin ratio was determined by densitometry and normalized to full-length tau. Error bars represent SD. Statistical significance was determined by one-way ANOVA with Tukey’s post hoc analysis. H Quantification of MAPT mRNA from three independent biological experiments. MAPT mRNA was normalized to GAPDH and shown relative to full-length tau. Error bars represent SD. Statistical significance was determined by one-way ANOVA with Tukey’s post hoc analysis.
Cells were washed once in 1X Dulbecco’s Phosphate Buffered Saline (D-PBS) and lysed in ice cold Pierce Immunoprecipitation (IP) lysis buffer (25 mM Tris-HCl pH 7.4, 150 mM NaCl, 1 mM EDTA, 1% NP-40). Lysates were collected by scraping, transferred to 1.5 mL microcentrifuge tubes, and incubated on ice for 15 min. […] Relative protein concentrations were determined by bicinchoninic acid assay (Pierce), and samples were normalized to the lowest protein concentration. […]
For tau immunoprecipitations, an aliquot (30 µL) of Protein A/G PLUS-agarose (Santa Cruz Biotech) per condition was collected and washed twice in ice cold IP lysis buffer. […] Inputs and eluates were subsequently analyzed by SDS-PAGE followed by western blotting. Quantification was performed by densitometry analysis in ImageJ (NIH).

[2] = test system: HEK293 FlpIn T-Rex cells; test: Tau protein abundance by western blot (tau:tubulin); assay type: cell-based; conditions: Fig 3G; for normalized tau:tubulin ratios: normalized to full-length tau
Experimental: as §1
Construction of the stable dox-inducible HEK 293 eGFP-tau reporter cell lines was performed as described. In brief, parent HEK 293 Flp-In T-REx cells were harvested by trypsinization, resuspended in electroporation buffer containing 5 µg eGFP-tau plasmid DNA and 45 µg pOG44 plasmid DNA. Cells were electroporated using program Q-001 on a Lonza 4D-Nucleofector. Electroporated cells were immediately diluted in 10% FBS-DMEM and cultured for 48 h to recover. Following recovery, cells were selected with 100 µg/mL hygromycin until single colonies arose. Colonies were subsequently picked and screened for dox-inducible expression of eGFP-tau by fluorescence microscopy (Echo Revolve) and western blotting.
Prepared samples were separated on precast 4–20% SDS-PAGE gradient gels (Bio-Rad) for 35 min at 200 V. Proteins were transferred to nitrocellulose membranes using a Trans-Blot Turbo Transfer System (Bio-Rad). Membranes were blocked in Odyssey TBS Blocking Buffer (Licor) for 1 h at room temperature and then incubated in primary antibody in 1X Tris-Buffer saline containing 0.05% Tween-20 (1X TBS-T), plus 5% non-fat dry milk powder, and 0.02% NaN3 overnight at 4 °C with rotation. The following day, membranes were washed 3 times in 1X TBS-T and then incubated in secondary antibody diluted 1:10,000 in Odyssey TBS Antibody Diluent (Licor) for 1 h at room temperature. Following incubation with secondary antibody, membranes were washed 3 times in 1X TBS-T and imaged on an Odyssey Fc Imaging System (Licor). Quantification was performed by densitometry analysis in ImageJ (NIH). Raw images, along with select quantifications, can be found in Fig. S6. […]

## tau: full length (FL) 0N4R splice isoform of tau, unmodified; recombinant or expressed in cells
[1]; IntDen quantification, with induction
  CHIP/tau: 1.597
[1]; IntDen quantification, with induction, relative to tauC3
  Relative Binding: 1.645
[1]; second quantification
  CHIP/Tau normalized to tauC3: 0.04136
[1]; second quantification, CHIP over total tau (D-8)
  CHIP/Tau: 0.03219
[2]; replicate 1
  normalized tau:tubulin ratios: 107.457
  raw tau:tubulin ratios: 1.039
[2]; replicate 2
  normalized tau:tubulin ratios: 93.4819
  raw tau:tubulin ratios: 0.9043
[2]; replicate 3
  normalized tau:tubulin ratios: 99.0612
  raw tau:tubulin ratios: 0.9582
